Assay results as given in EP0292169B1, “Substrates for B-galactosidase” (Bayer Corporation, priority 1987, dated 1988).
Where two headings read alike, the source gives them in different places. Each block holds one compound with its values, some of them ahead of it.

Tests used:
[1] = Molar absorptivity of phenolic precursors of substrates; assay type: physicochemical
Protocol: The molar absorptivity (εmax) of the phenolic precursors of several substrates of this invention were measured and calculated according to the following formula: [formula] wherein A is the absorbance; b is the path length through the sample; and c is the concentration of solute.
The molar absorptivity of the phenolic precursor of ONPG, the most commonly used prior art substrate for β-galactosidase was likewise measured and calculated for comparative purposes. The aim was to identify phenolic precursors which would provide enhanced molar absorptivity to that of ONPG.

β-galactosidase [2] = molecular target: T1, β-galactosidase (Escherichia coli, UniProt P00722); assay type: biochemical; details: for Km / V max: calculated from experimental data of Figs. 1 and 2
β-galactosidase [3] = molecular target: T1, β-galactosidase; assay type: biochemical; details: antibody titration curve, Fig. 3
[4] = Stability in aqueous environment; assay type: physicochemical
β-galactosidase [5] = molecular target: T1, β-galactosidase; details: available from the literature, cited from earlier work

T1 sequence (P00722 2-1024): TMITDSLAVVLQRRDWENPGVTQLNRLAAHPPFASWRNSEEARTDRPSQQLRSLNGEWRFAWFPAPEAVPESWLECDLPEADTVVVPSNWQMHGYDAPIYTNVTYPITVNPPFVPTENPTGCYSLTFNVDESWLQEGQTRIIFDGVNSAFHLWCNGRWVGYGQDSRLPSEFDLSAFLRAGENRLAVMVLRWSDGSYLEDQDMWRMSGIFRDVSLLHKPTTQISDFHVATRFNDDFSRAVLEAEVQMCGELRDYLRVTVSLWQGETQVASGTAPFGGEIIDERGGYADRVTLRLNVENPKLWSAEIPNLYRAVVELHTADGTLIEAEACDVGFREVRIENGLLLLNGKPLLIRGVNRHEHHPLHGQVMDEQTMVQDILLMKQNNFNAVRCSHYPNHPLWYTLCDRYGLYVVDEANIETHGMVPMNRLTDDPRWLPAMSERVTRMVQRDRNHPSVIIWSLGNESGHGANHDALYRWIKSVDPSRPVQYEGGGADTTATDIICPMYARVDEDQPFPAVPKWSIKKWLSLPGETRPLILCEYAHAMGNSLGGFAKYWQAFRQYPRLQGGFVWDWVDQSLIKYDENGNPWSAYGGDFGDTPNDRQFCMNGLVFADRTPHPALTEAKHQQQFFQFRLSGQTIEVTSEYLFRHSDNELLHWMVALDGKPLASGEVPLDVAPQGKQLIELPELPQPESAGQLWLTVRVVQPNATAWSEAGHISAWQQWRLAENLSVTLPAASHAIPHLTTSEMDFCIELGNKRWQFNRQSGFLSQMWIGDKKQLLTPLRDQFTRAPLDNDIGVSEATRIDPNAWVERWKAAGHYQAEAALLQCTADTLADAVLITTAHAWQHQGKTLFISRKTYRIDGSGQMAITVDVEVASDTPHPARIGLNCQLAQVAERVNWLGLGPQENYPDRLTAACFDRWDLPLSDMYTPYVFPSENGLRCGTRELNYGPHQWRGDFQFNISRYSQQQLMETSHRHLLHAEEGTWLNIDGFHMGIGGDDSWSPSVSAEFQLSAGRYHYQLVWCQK

Compound: O=[N+]([O-])c1cc(Cl)c(O)c(Cl)c1 [2,6-dichloro-4-nitrophenol]
Molar Absorptivity (εmax) ([1]; 405 nm, pH 7.5): 15.9 (405 nm, pH 7.5)

Compound: O=[N+]([O-])c1cccc(Cl)c1O [2-chloro-6-nitrophenol]
Molar Absorptivity (εmax) ([1]; 405 nm, pH 7.5): 4.6 (405 nm, pH 7.5)

Compound: O=[N+]([O-])c1ccc(O)c(Cl)c1 [CLNP, 2-chloro-4-nitrophenol]
Molar Absorptivity (εmax) ([1]; 405 nm, pH 7.5): 16.9 (405 nm, pH 7.5)

Compound: O=[N+]([O-])c1ccc(O[C@@H]2O[C@H](CO)[C@H](O)[C@H](O)[C@H]2O)c(Cl)c1 [CLNPG, 2-chloro-4-nitrophenyl-β-D-galactopyranoside]
V max relative to that of ONPG (β-galactosidase [2]; CLNPG versus ONPG): at least four times | Km (β-galactosidase [2]): 200 µM | V max (β-galactosidase [2]): 0.13 ΔA/Min | increase in assay sensitivity over ONPG (β-galactosidase [3]): four-fold

Compound: O=[N+]([O-])c1ccc(O)c([N+](=O)[O-])c1 [DNP, 2,4-dinitro phenol]
Molar Absorptivity (εmax) ([1]; pH 7.5): 10.7 (405 nm, pH 7.5)

Compound: O=[N+]([O-])c1ccc(O[C@@H]2O[C@H](CO)[C@H](O)[C@H](O)[C@H]2O)c([N+](=O)[O-])c1 [DNPG, 2,4-dinitro-phenyl-β-D-galactopyranoside]
stability in aqueous environment [4]: unstable | Km (β-galactosidase [5]): 220 µM | V max (β-galactosidase [5]): 0.13 ΔA/Min

Compound: O=[N+]([O-])c1ccccc1O [ONP, orthonitro phenol, reference compound]
Molar Absorptivity (εmax) ([1]; 405 nm, pH 7.5): 3.0 (405 nm, pH 7.5)

Compound: O=[N+]([O-])c1ccccc1O[C@@H]1O[C@H](CO)[C@H](O)[C@H](O)[C@H]1O [ONPG, O-nitrophenyl-β-D-galactopyranoside]
V max (β-galactosidase [5]): 0.03 ΔA/Min | Km (β-galactosidase [5]; read-out: Km): 170 µM

Molar Absorptivity (εmax) ([1]; 585 nm, pH 8.5): 50.7 (585 nm, pH 8.5)
Compound: Cc1cc(C2(c3cc(C)c(O)c(Br)c3)OS(=O)(=O)c3ccccc32)cc(Br)c1O [bromocresol purple]

Molar Absorptivity (εmax) ([1]; 575 nm, pH 8.5): 8.4 (575 nm, pH 8.5)
Compound: Cc1cc(O)ccc1C1(c2ccc(O)cc2C)OS(=O)(=O)c2ccccc21 [metacresol purple]

Compound: bromocresol purple-β-D-galactopyranoside [BCPG, reference compound]
V max (β-galactosidase [2]): 0.11 ΔA/Min | Km (β-galactosidase [2]; read-out: Km): 8000 µM
